Laboratory results reported in US20240191226A1, “SMAD2 INHIBITION IN BETA CELLS FOR TYPE 2 DIABETES THERAPY” (University of Pittsburgh - Of the Commonwealth System of …, priority 2021, published 2024).

Columns and labels:
smad2 [1] = assay: AAV6-GFP-U6-mSMAD2_shRNA treatment of beta-TC cells, Western blot; type: cell-based; conditions: beta-TC cells sorted after transfection, treated for three days, Western blot (FIG. 19A)
Method: (§1) FIGS. 19A-19C. AAV6-GFP-U6-mSMAD2_shRNA treatment in vitro blocks smad2 expression in MIN6 and Beta-TC cell lines. […] Phospho smad2 expression is nearly absent in Min6 cells after AAV6-GFP-U6-mSMAD2_shRNA treatment (B). […] Similar experiments can be performed in human beta cell lines (EndoC-bH5, Human Cell Design) and primary human beta cells.
(§2) FIGS. 19A-19C show results from experiments where Min6 cells or beta-TC cells were treated with AAV6-GFP-U6-mSMAD2_shRNA for three days. A lysate was prepared from total or sorted cells. RT-PCR, and Western blot for Smad2, phospho Smad2 and Beta-actin was performed. […] Phospho smad2 expression is nearly absent in Min6 cells after AAV6-GFP-U6-mSMAD2_shRNA treatment (FIG. 19B).

smad2 [2] = assay: AAV6-GFP-U6-mSMAD2_shRNA treatment of Min6 cells, Western blot and RT-PCR; type: cell-based
Method: as §1, §2

Which smad2 expression (smad2 [1]) does the source give for “AAV6-GFP-U6-mSMAD2_shRNA: AAV6 construct with smad2 shRNA sequence SEQ ID NO: 34, targeting sequence SEQ ID NO: 35 (DNA CCGGTGGTGTTCAATCGCATACTATCTCGAGATAGTATGCGATTGAACACCATTTTTG)” here?
The smad2 expression was “near complete ablation”.

What about the smad2 expression (smad2 [2]; Min6 cells sorted after transfection, treated for three days, Western blot (FIG. 19A)) of the same substance?
The smad2 expression was “near complete ablation”.

What about the “Phospho smad2 expression” value (smad2 [2]; Min6 cells, treated for three days, Western blot (FIG. 19B)) of the same substance?
Its value is “nearly absent”.

What about the “RT-PCR quantification of MIN6 mRNA (smad2)” value (smad2 [2]; sorted MIN6 cells, treated for three days (FIG. 19C)) of the same substance?
The value was “complete absence”.
